Patent US20100168105A1, “Spirocyclopropyl Piperidine Derivatives” (priority 2007, published 2010)

Legend:
[1] = biological target: T1, human Histamine H3 receptor (hH3R) (Homo sapiens, UniProt Q9Y5N1); experiment: Guanosine 5'-O-(3-[35S]thio)triphosphate [GTPγS] Binding Assay; format: biochemical; conditions: antagonist activity; membranes from CHO cells expressing hH3R, (R)-α-methyl histamine 30 nM, [35S]GTPγS 0.2 nM, 90 minutes
T1 construct: expressed in transfected cells; host or cells: CHO cells (membranes)
Protocol: Guanosine 5′-O-(3-[^35]thio)triphosphate [GTPγS] Binding Assay
The GTPγS binding assay can be used to investigate antagonist properties of compounds in CHO cells (Chinese Hamster Ovary) transfected with human Histamine H3 receptor (hH3R). […] To determine antagonist activity, (R)-α-methyl histamine (30 nM) is added in 96 well SPA plate with [^35S]GTPγS (0.2 nM) and various concentration of H3R antagonists. The GTPγS binding assay is started with addition of the mixture membrane/saponine/GDP and incubated for 90 minutes at room temperature. The amount of bound [^35S]GTPγS is determined by using the MicroBeta Trilux counter (PerkinElmer). The percentage of [^35S]GTPγS bound in each sample is calculated as a percentage of that bound control sample incubated in absence of H3 antagonist. Duplicate determinations are obtained for each concentration, and the data are analyzed using ExcelFit4 to obtain the IC50.

[2] = biological target: human histamine H3 receptors (full-length H3, isoform 445) (Homo sapiens, UniProt Q9Y5N1); conditions: hH3 binding IC50 (nM), inhibition of 1.4 nM [3H]-N-α-methylhistamine binding to CHO-K1 membranes expressing human H3, SPA, 1.5 hr;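 further: scintillation counts read after the 1.5 hr incubation at room temperature with shaking, Imetit serving as reference control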
Sequence of human histamine H3 receptors (full-length H3, isoform 445) (Q9Y5N1 whole entry, canonical isoform): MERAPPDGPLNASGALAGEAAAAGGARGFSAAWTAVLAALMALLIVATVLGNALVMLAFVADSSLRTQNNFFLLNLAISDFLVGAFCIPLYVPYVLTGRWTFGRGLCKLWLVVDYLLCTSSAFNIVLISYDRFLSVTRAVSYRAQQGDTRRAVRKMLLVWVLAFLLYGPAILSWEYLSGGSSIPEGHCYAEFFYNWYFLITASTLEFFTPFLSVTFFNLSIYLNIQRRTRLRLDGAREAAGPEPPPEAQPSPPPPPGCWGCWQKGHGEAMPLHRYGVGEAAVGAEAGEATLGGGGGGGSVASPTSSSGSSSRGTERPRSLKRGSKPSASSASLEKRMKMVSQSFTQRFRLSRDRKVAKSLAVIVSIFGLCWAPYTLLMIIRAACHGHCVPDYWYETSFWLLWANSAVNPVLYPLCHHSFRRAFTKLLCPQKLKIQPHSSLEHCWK
Protocol: Histamine H3 SPA with the Agonist Radioligand [^3H]—N-α-methylhistamine
Reproducibility of the assay is such that IC50 curves can be generated in singlicate. Single poke (SP) testing was done in triplicate.
Membranes, prepared from CHO-K1 cells stably expressing the human histamine H3 receptor, were obtained from ACS.
Tested formula I compounds were provided as solubilized samples in neat DMSO. Serial dilutions were performed in DMSO.
Plates were read on a Perkin Elmer TopCount. CPM data were used to analyze unless DPM data generated by a quench curve were required.
• 1. 1 mg/ml BSA was added to assay buffer (AB) on day of assay. • 2. […] Buffer volume was split between beads and membranes to allow for polytroning of membranes prior to addition to beads. • a. […] Waited a minimum of 15 minutes prior to adding membranes (See b. below.). • b. […] The homogenized membrane mixture was combined with the beads and a minimum of 30 minutes was waited prior to dispensing to plate. • 3. Formula I compounds: For Single Poke, 2 μl 1 mM of a compound in accordance with formula I was dispensed to Optiplates (triplicate plates) for final concentration of 10 μM. […] Imetit (see below) was used as a control. • 4. […] 5 μl samples were calculated in quadruplicate on the β counter. […] (For IC50s, use final concentration on calculation tab of ABase template.)
• 1. […] 2 μl of the formula I compound dilution was mixed and then transferred into assay plates. DMSO was removed and 2 μl of 100 μM Imetit was added to the wells. • 3. 178 μl bead/membrane mixture was dispensed into the assay plate. • 4. 20 μl [^3H]-NAMH was added with Rapid Plate. The assay plate was sealed and incubated for 1.5 hr on RT shaker at speed ˜6.5. • 5. The assay plate was subsequently centrifuged at 1000 rpm for 10 minutes. • 6. The count was performed on TopCount using one of the 3H SPA H3 Quench programs.
The DPM data was analyzed when tSIS was less than that associated with 70% of full scale on the quench curve (tSIS<25%). Otherwise, CPM data was used.

T1 sequence (Q9Y5N1 whole entry): as the sequence (Q9Y5N1 whole entry, canonical isoform) above

IC50 [1] | IC50 [2] | Compound
0.017 µM | 15 nM | O=C(C1CC12CCN(C1CCCOC1)CC2)N1CCN(C2CCC2)CC1 (stereo not drawn) [Example 32, (4-Cyclobutyl-piperazin-1-yl)-[6-(tetrahydro-pyran-3-yl)-6-aza-spiro[2.5]oct-1-yl]-methanone]
0.0875 µM | 50.9 nM | CC(C)N1CCN(C(=O)C2CC23CCN(C2CCOCC2)CC3)CC1 (single isomer, unassigned) [Example 29, (4-Isopropyl-piperazin-1-yl)-[6-(tetrahydro-pyran-4-yl)-6-aza-spiro[2.5]oct-1-yl]-methanone]
0.0101 µM | 56.5 nM | O=C(C1CC12CCN(C1CCCCC1)CC2)N1CCN(C2CCCCC2)CC1 (stereo not drawn) [Example 19, (6-Cyclohexyl-6-aza-spiro[2.5]oct-1-yl)-(4-cyclohexyl-piperazin-1-yl)-methanone]
0.013 µM | 33.6 nM | O=C(C1CC12CCN(C1CCOCC1)CC2)N1CCN(C2CCCCC2)CC1 (stereo not drawn) [Example 1, (4-Cyclohexyl-piperazin-1-yl)-[6-(tetrahydro-pyran-4-yl)-6-aza-spiro[2.5]oct-1-yl]-methanone]
0.0853 µM | 165 nM | O=C(C1CC12CCN(c1ccncc1)CC2)N1CCN(C2CCCCC2)CC1 (stereo not drawn) [Example 35, (4-Cyclohexyl-piperazin-1-yl)-(6-pyridin-4-yl-6-aza-spiro[2.5]oct-1-yl)-methanone]
0.044 µM | 7.68 nM | O=C(C1CC12CCN(C1CCCCC1)CC2)N1CCN(C2CCC2)CC1 (single isomer, unassigned) [Example 27, (4-Cyclobutyl-piperazin-1-yl)-(6-cyclohexyl-6-aza-spiro[2.5]oct-1-yl)-methanone]
0.139 µM | 26.1 nM | O=C(C1CC12CCN(C1CCOCC1)CC2)N1CCN(c2ccncc2)CC1 (stereo not drawn) [Example 14, (4-Pyridin-4-yl-piperazin-1-yl)-[6-(tetrahydro-pyran-4-yl)-6-aza-spiro[2.5]oct-1-yl]-methanone]
0.074 µM | 196 nM | O=C(C1CC12CCN(C1CCOCC1)CC2)N1CCN(C2CCCCCC2)CC1 (stereo not drawn) [Example 11, (4-Cycloheptylpiperazin-1-yl)(6-(tetrahydro-2H-pyran-4-yl)-6-azaspiro[2.5]octan-1-yl)methanone]
0.125 µM | 407 nM | O=C(C1CC12CCN(CCc1ccccc1)CC2)N1CCN(C2CCCCC2)CC1 (single isomer, unassigned) [Example 18, (4-Cyclohexyl-piperazin-1-yl)-(6-phenethyl-6-aza-spiro[2.5]oct-1-yl)-methanone]
0.0055 µM | 35.1 nM | O=C(C1CC12CCN(C1CCOC1)CC2)N1CCN(C2CCC2)CC1 (stereo not drawn) [Example 33, (4-Cyclobutyl-piperazin-1-yl)-[6-(tetrahydro-furan-3-yl)-6-aza-spiro[2.5]oct-1-yl]-methanone]
0.067 µM | 209 nM | O=C(C1CC12CCN(C1CCC1)CC2)N1CCN(C2CCOCC2)CC1 (stereo not drawn) [Example 22, (6-Cyclobutyl-6-aza-spiro[2.5]oct-1-yl)-[4-(tetrahydro-pyran-4-yl)-piperazin-1-yl]-methanone]
1.2 µM | 1400 nM | CN1CCN(C(=O)C2CC23CCN(C2CCOCC2)CC3)CC1 (stereo not drawn) [Example 7, (4-Methyl-piperazin-1-yl)-[6-(tetrahydro-pyran-4-yl)-6-aza-spiro[2.5]oct-1-yl]-methasone]
0.00325 µM | 9.02 nM | CC(C)N1CCN(C(=O)C2CC23CCN(C2CCOCC2)CC3)CC1 (stereo not drawn) [Example 10, (4-Isopropylpiperazin-1-yl)(6-(tetrahydro-2H-pyran-4-yl)-6-azaspiro[2.5]octan-1-yl)methanone]
0.0135 µM | 24.4 nM | O=C(C1CC12CCN(CCN1CCOCC1)CC2)N1CCN(C2CCC2)CC1 (stereo not drawn) [Example 34, (4-Cyclobutyl-piperazin-1-yl)-[6-(2-morpholin-4-yl-ethyl)-6-aza-spiro[2.5]oct-1-yl]-methanone]
0.0088 µM | 4.43 nM | O=C(C1CC12CCN(C1CCOCC1)CC2)N1CCN(C2CCCC2)CC1 (stereo not drawn) [Example 12, (4-cyclopentylpiperazin-1-yl)(6-(tetrahydro-2H-pyran-4-yl)-6-azaspiro[2.5]octan-1-yl)methanone]
